Test results: the supplement of paper PMC11061612

Legend:
[1] = tested on: A2780 (Ovarian Carcinoma); test: Bliss excess, mean over the matrix (fraction); higher = more synergy
In short: (§1)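 Bliss excess equals the observed combination effect minus the expected value EA + EB − EA·EB, where EA and EB are the effects of each agent alone. Combination Emax is the second-highest inhibition within the matrix. Inhibition was scaled from CellTiter-Glo 2.0 luminescence, with 0 set by vehicle wells and 1 by blank wells, after 72 hours of two-drug dosing of cells plated in 1536-well plates.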

[2] = tested on: EPLC-272H (Other Solid Carcinomas); test: as above
In short: as §1

[3] = tested on: HT55 (Colorectal Carcinoma); test: as above
In short: as §1

[4] = tested on: NCI-H716 (Colorectal Carcinoma); test: as above
In short: as §1

PEO1 (Ovarian Carcinoma) = test: as above
In short: as §1

A204 (Rhabdomyosarcoma) = test: combination Emax (second highest fraction inhibited in the dose matrix, 72 h); higher = more inhibition; extreme values may be limits of the assay
In short: as §1

[5] = tested on: A253 (Head and Neck Carcinoma); test: as above
In short: as §1

AU565 (Breast Carcinoma) = test: as above
In short: as §1

[6] = tested on: CA46 (Burkitt's Lymphoma); test: as above
In short: as §1

COLO-792 (Melanoma) = test: as above
In short: as §1

EW-16 (Ewing's Sarcoma) = test: as above
In short: as §1

[7] = tested on: G-402 (Other Solid Carcinomas); test: as above
In short: as §1

IM-9 (Non-Cancerous) = test: as above
In short: as §1

[8] = tested on: JHH-2 (Hepatocellular Carcinoma); test: as above
In short: as §1

NB13 (Neuroblastoma) = test: as above
In short: as §1

[9] = tested on: NCI-H1651 (Lung Adenocarcinoma); test: as above
In short: as §1

[10] = tested on: NCI-H2228 (Lung Adenocarcinoma); test: as above
In short: as §1

[11] = tested on: OACp4C (Esophageal Adenocarcinoma); test: as above
In short: as §1

RH-41 (Rhabdomyosarcoma) = test: as above
In short: as §1

[12] = tested on: SW620 (Colorectal Carcinoma); test: as above
In short: as §1

| SMILES | Bliss excess [1] | Bliss excess [2] | Bliss excess [3] | Bliss excess [4] | Bliss excess (PEO1 (Ovarian Carcinoma)) | combination Emax (A204 (Rhabdomyosarcoma)) | combination Emax [5] | combination Emax (AU565 (Breast Carcinoma)) | combination Emax [6] | combination Emax (COLO-792 (Melanoma)) | combination Emax (EW-16 (Ewing's Sarcoma)) | combination Emax [7] | combination Emax (IM-9 (Non-Cancerous)) | combination Emax [8] | combination Emax (NB13 (Neuroblastoma)) | combination Emax [9] | combination Emax [10] | combination Emax [11] | combination Emax (RH-41 (Rhabdomyosarcoma)) | combination Emax [12] |
| --- | --- | --- | --- | --- | --- | --- | --- | --- | --- | --- | --- | --- | --- | --- | --- | --- | --- | --- | --- | --- |
| NC1(C(=O)N[C@@H](CCO)c2ccc(Cl)cc2)CCN(c2ncnc3[nH]ccc23)CC1 [Capivasertib] + COc1nnc2ccc(N3CCC(c4ccc(OCCN5CCN(C)C(=O)[C@H]5C)cc4)CC3)nn12 [AZD5153] (first compound max 10 µM, 7x7, partner max 1 µM) | -0.0148 | -0.0025 | -0.0408 | -0.0181 | 0.0529 | 0.517 | 0.75 | 0.664 | 0.644 | 0.94 | 0.515 | 0.723 | 0.811 | 0.605 | 0.775 | 0.0984 | 0.52 | 0.905 | 1 | 0.427 |
| COc1nnc2ccc(N3CCC(c4ccc(OCCN5CCN(C)C(=O)[C@H]5C)cc4)CC3)nn12 [AZD5153] + C=CCn1c(=O)c2cnc(Nc3ccc(N4CCN(C)CC4)cc3)nc2n1-c1cccc(C(C)(C)O)n1 [AZD1775] (first compound max 1 µM, partner max 1 µM) | -0.0523 | -0.0939 | -0.0112 | -0.0734 | 0.058 | 0.471 | 0.356 | 0.742 | 0.744 | 0.856 | 0.679 | 0.85 | 0.975 | 0.553 | 0.813 | 0.822 | 0.465 | 0.882 | 0.996 | 0.685 |
| CC1(C)CCC(CN2CCN(c3ccc(C(=O)NS(=O)(=O)c4ccc(NCC5CCOCC5)c([N+](=O)[O-])c4)c(Oc4cnc5[nH]ccc5c4)c3)CC2)=C(c2ccc(Cl)cc2)C1 [Venetoclax] + COc1cc(Nc2ncc3c(n2)-c2ccc(Cl)cc2C(c2c(F)cccc2OC)=NC3)ccc1C(=O)O [Alisertib] (first compound max 1 µM, 7x7, partner max 10 µM) | -0.0602 | 0.0442 | 0.0009 | -0.0203 | 0.0007 | 0.431 | 0.444 | 0.504 | 0.436 | 0.405 | 0.726 | 0.57 | 1 | 0.525 | 0.932 | 0.269 | 0.396 | 0.72 | 0.765 | 0.387 |
| CCN(CCO)CCCOc1ccc2c(Nc3cc(CC(=O)Nc4cccc(F)c4)[nH]n3)ncnc2c1 [AZD2811] + C=CCn1c(=O)c2cnc(Nc3ccc(N4CCN(C)CC4)cc3)nc2n1-c1cccc(C(C)(C)O)n1 [AZD1775] (first compound max 1 µM, partner max 1 µM) | 0.088 | -0.0341 | 0.0302 | 0.0847 | -0.0025 | 0.27 | 0.407 | 0.449 | 0.489 | 0.396 | 0.41 | 0.526 | 0.999 | 0.574 | 0.924 | 0.634 | 0.598 | 0.809 | 0.961 | 0.461 |
| CC1(C)CCC(CN2CCN(c3ccc(C(=O)NS(=O)(=O)c4ccc(NCC5CCOCC5)c([N+](=O)[O-])c4)c(Oc4cnc5[nH]ccc5c4)c3)CC2)=C(c2ccc(Cl)cc2)C1 [Venetoclax] + Cn1cnc2c(F)c(Nc3ccc(Br)cc3Cl)c(C(=O)NOCCO)cc21 [Selumetinib] (first compound max 1 µM, 7x7, partner max 3 µM) | 0.0027 | -0.0184 | -0.0356 | -0.0814 | -0.0452 | 0.206 | 0.185 | 0.201 | 0.403 | 0.505 | 0.127 | 0.2 | 0.901 | 0.388 | 0.183 | 0.0964 | 0.185 | 0.488 | 0.289 | 0.575 |
| Cn1cnc2c(F)c(Nc3ccc(Br)cc3Cl)c(C(=O)NOCCO)cc21 [Selumetinib] + C=CCn1c(=O)c2cnc(Nc3ccc(N4CCN(C)CC4)cc3)nc2n1-c1cccc(C(C)(C)O)n1 [AZD1775] (first compound max 10 µM, partner max 1 µM) | -0.0352 | -0.0607 | -0.0422 | -0.0992 | -0.0059 | 0.276 | 0.336 | 0.644 | 0.635 | 0.694 | 0.402 | 0.483 | 1 | 0.536 | 0.794 | 0.574 | 0.453 | 0.909 | 0.974 | 0.731 |
| COc1nnc2ccc(N3CCC(c4ccc(OCCN5CCN(C)C(=O)[C@H]5C)cc4)CC3)nn12 [AZD5153] + CC1(C)CCC(CN2CCN(c3ccc(C(=O)NS(=O)(=O)c4ccc(NCC5CCOCC5)c([N+](=O)[O-])c4)c(Oc4cnc5[nH]ccc5c4)c3)CC2)=C(c2ccc(Cl)cc2)C1 [Venetoclax] (first compound max 1 µM, 7x7, partner max 1 µM) | -0.0689 | -0.0378 | -0.0387 | -0.0035 | -0.0771 | 0.416 | 0.22 | 0.311 | 0.658 | 0.583 | 0.464 | 0.769 | 0.859 | 0.357 | 0.474 | 0.257 | 0.288 | 0.545 | 0.909 | 0.431 |
| CN(C)CCCOc1ccc(-c2ccc3ncc4c(c3c2)n(C2CCOCC2)c(=O)n4C)cn1 [AZD0156] + C[C@@H]1COCCN1C2=NC(=NC(=C2)C3(CC3)[S@](=N)(=O)C)C4=C5C=CNC5=NC=C4 [AZD6738] (first compound max 1 µM, 7x7, partner max 10 µM) | -0.0114 | 0.0156 | -0.0042 | 0.0459 | -0.0327 | 0.411 | 0.794 | 0.473 | 0.746 | 0.273 | 0.695 | 0.534 | 0.976 | 0.597 | 0.906 | 0.649 | 0.517 | 0.724 | 0.874 | 0.566 |
| CC(=O)c1c(C)c2cnc(Nc3ccc(N4CCNCC4)cn3)nc2n(C2CCCC2)c1=O [Palbociclib] + CC1(C)CCC(CN2CCN(c3ccc(C(=O)NS(=O)(=O)c4ccc(NCC5CCOCC5)c([N+](=O)[O-])c4)c(Oc4cnc5[nH]ccc5c4)c3)CC2)=C(c2ccc(Cl)cc2)C1 [Venetoclax] (first compound max 10 µM, 7x7, partner max 1 µM) | 0.0005 | -0.0106 | 0.0107 | 0.0345 | -0.0062 | 0.308 | 0.0236 | 0.262 | 0.355 | 0.29 | 0.333 | 0.442 | 0.776 | 0.357 | 0.283 | 0.0383 | 0.238 | 0.217 | 0.329 | 0.385 |
